Data: the NIST ThermoML archive (doi:10.1016/j.fluid.2013.01.017)
± gives the expanded uncertainty stated by the source.

Details: Liquid, Closed cell (Static) method

vapor or sublimation pressure (308.45 K): 6.1 ± 12 kPa
vapor or sublimation pressure (318.42 K): 10.1 ± 12 kPa
vapor or sublimation pressure (323.48 K): 12.8 ± 12 kPa
vapor or sublimation pressure (328.48 K): 16 ± 12 kPa
vapor or sublimation pressure (338.43 K): 24.3 ± 12 kPa
SMILES: FC(F)(F)C(F)(F)C(F)(F)C(F)(F)C(F)(F)C(F)(F)C(F)(F)C(F)(F)F [octadecafluorooctane]
